In patent publication US12076307B2, “Compositions for prevention or treatment of acute radiation syndrome and other radiation exposure” (priority 2017, dated 2024):
Values joined by “and” are separate entries in the source; they are usually repeats but may differ in a detail not shown here. Equal values may be shown once. Marks after values point to notes of the source that are not given here.

Test system: Balb/c mice, 6.11 Gy TBI
Assay: Dose optimization / pharmacodynamics study in LD70/30 ARS model (40 mice per group)
Details: for Mean Duration of Anemia in Days (±SE): n=17
[1] = 6.11 Gy, EC-18 50 mg/kg daily from day 1, 30 days
[2] = 6.11 Gy, EC-18 100 mg/kg daily from day 1, 30 days
[3] = 6.11 Gy, EC-18 250 mg/kg daily from day 1, 30 days
[4] = 6.11 Gy, EC-18 500 mg/kg daily from day 1, 30 days

## CCCCC/C=C\C/C=C\CCCCCCCC(=O)OC(COC(C)=O)COC(=O)CCCCCCCCCCCCCCC (stereo not shown) [EC-18, 1-palmitoyl-2-linoleoyl-3-acetylglycerol]
25 mg/kg (so in the source)
  improvement in survival vs control group: 2 fold
250 mg/kg daily, 24-hr delayed
  improvement in survival vs control group: 4 fold
250 mg/kg, 30 days of observation
  γ-radiation-induced reduction of RBC and hemoglobin: significantly prevented
250 mg/kg, from 15 days to the last day of observation
  mean PLT count vs control cohort: higher
500 mg/kg daily, 24-hr delayed
  improvement in survival vs control group: ~4 fold
6.11 Gy, EC-18 50 mg/kg
  Survival time of decedents, Median: 25.5 days
[1]
  No. of mice that survived/total: 24/40
  Survivability / Survival: 60%
6.11 Gy, EC-18 50 mg/kg, 50 mg/kg
  Survival time of decedents, Mean ± SEM: 24.3 days and 24.3 ± 1.2 days
6.11 Gy, EC-18 100 mg/kg
  Survival time of decedents, Mean ± SEM: 22.8 ± 1.7 days
  Survival time of decedents, Median: 26.0 days
[2]
  No. of mice that survived/total: 27/40
  Survival: 67.5%
6.11 Gy, EC-18 250 mg/kg
  Survival time of decedents, Median: 27.5 days
[3]
  No. of mice that survived/total: 34/40
  Survivability / Survival: 85%
6.11 Gy, EC-18 250 mg/kg, 250 mg/kg
  Survival time of decedents, Mean ± SEM: 27.8 days and 27.8 ± 0.4 days
6.11 Gy, EC-18 500 mg/kg
  Survival time of decedents, Median: 19.5 days
[4]
  No. of mice that survived/total: 34/40
  Survivability / Survival: 85%
6.11 Gy, EC-18 500 mg/kg, 500 mg/kg
  Survival time of decedents, Mean ± SEM: 20.3 days and 20.3 ± 1.5 days
50 and 250 mg/kg, dose-dependent
  radiation-induced depletion of ANC (and WBC): significantly attenuated
EC-18 50 mg/kg
  Mean of the First Day Of Anemia (HGB <12 g/dL) (±SE): 10.4 ± 0.7 (5-15)
  Mean of the First Day of Neutropenia (ANC <500 cells/μL) (±SE): 3.0 ± 0.0 (3-3)
  Mean of the First Day of Thrombocytopenia (PLT <100 × 10^3 cells/μL) (±SE): 10.0 ± 0.0 (10-10)
  Mean Duration of Anemia in Days (±SE): 15.0 ± 0.8^b (7-19) Days
EC-18 50 mg/kg, 50 mg/kg
  Mean of the First Day of SN (ANC <100 cells/μL) (±SE): 5.7 ± 0.6 (3-10) days
EC-18 50 mg/kg, n=19
  Mean Duration of Neutropenia in Days (±SE): 21.0 ± 0.7^b (17-24) Days
  Mean Duration of SN in Days (±SE): 11.4 ± 0.9^b (5-19) Days
  Mean Duration of Thrombocytopenia in Days (±SE): 12.8 ± 0.8^b (7-17) Days
EC-18 100 mg/kg
  Mean of the First Day Of Anemia (HGB <12 g/dL) (±SE): 11.0 ± 0.5 (5-15)
  Mean of the First Day of Neutropenia (ANC <500 cells/μL) (±SE): 3.0 ± 0.0 (3-3)
  Mean of the First Day of Thrombocytopenia (PLT <100 × 10^3 cells/μL) (±SE): 10.0 ± 0.0 (10-10)
  Mean Duration of Anemia in Days (±SE): 15.5 ± 0.5^c (12-20) Days
EC-18 100 mg/kg, 100 mg/kg
  Mean of the First Day of SN (ANC <100 cells/μL) (±SE): 5.1 ± 0.5 (3-10) days
EC-18 100 mg/kg, n=18
  Mean Duration of Neutropenia in Days (±SE): 23.9 ± 0.5^c (19-27) Days
  Mean Duration of SN in Days (±SE): 13.4 ± 1.3^c (7-25) Days
  Mean Duration of Thrombocytopenia in Days (±SE): 14.7 ± 1.0^c (5-20) Days
EC-18 250 mg/kg
  Mean of the First Day Of Anemia (HGB <12 g/dL) (±SE): 12.1 ± 0.5 (10-15)
  Mean of the First Day of Neutropenia (ANC <500 cells/μL) (±SE): 3.2 ± 0.1 (3-5)
